Laboratory results published in ChEMBL document CHEMBL1201862, “PubChem BioAssay data set” (2004).
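Where inhibition never reached the appropriate level, the endpoint shown equals the highest concentration tested. Otherwise, values were interpolated linearly from a five-concentration, 48-hour dose response in 96-well plates. Abbreviation: GI50, concentration required for 50% inhibition of growth.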 The source made the active and inactive calls. Rule as the data show it: active = GI50 up to about 1.1 µM and inactive = higher.

How the values were obtained:
Experiment in all cases: DTP human tumour cell line panel, 48 h
786-0 = tested on: 786-0
NCI-H23 = tested on: NCI-H23
KM12 = tested on: KM12
SNB-19 = tested on: SNB-19
UACC-257 = tested on: UACC-257
SW-620 = tested on: SW-620
M14 = tested on: M14
PC-3 = tested on: PC-3
NCI-H522 = tested on: NCI-H522
COLO 205 = tested on: COLO 205
A549 = tested on: A549
NCI-H460 = tested on: NCI-H460
SK-OV-3 = tested on: SK-OV-3
OVCAR-8 = tested on: OVCAR-8
Hs-578T = tested on: Hs-578T
EKVX = tested on: EKVX
MOLT-4 = tested on: MOLT-4
SK-MEL-5 = tested on: SK-MEL-5
UACC-62 = tested on: UACC-62
MDA-MB-231 = tested on: MDA-MB-231

Compound	GI50 (786-0)	GI50 (NCI-H23)	GI50 (KM12)	GI50 (SNB-19)	GI50 (UACC-257)	GI50 (SW-620)	GI50 (M14)	GI50 (PC-3)	GI50 (NCI-H522)	GI50 (COLO 205)	GI50 (A549)	GI50 (NCI-H460)	GI50 (SK-OV-3)	GI50 (OVCAR-8)	GI50 (Hs-578T)	GI50 (EKVX)	GI50 (MOLT-4)	GI50 (SK-MEL-5)	GI50 (UACC-62)	GI50 (MDA-MB-231)
NC1(P(=O)(O)O)CCCCC1	> 100 µM (inactive)	> 100 µM (inactive)	> 100 µM (inactive)	> 100 µM (inactive)	> 100 µM (inactive)	> 100 µM (inactive)	> 100 µM (inactive)	> 100 µM (inactive)	> 100 µM (inactive)	> 100 µM (inactive)	> 100 µM (inactive)	> 100 µM (inactive)	> 100 µM (inactive)	> 100 µM (inactive)	> 100 µM (inactive)	> 100 µM (inactive)	> 100 µM (inactive)	> 100 µM (inactive)	> 100 µM (inactive)	> 100 µM (inactive)
COc1ccc(C2c3cc4c(cc3OC(NNC(N)=O)C2C)OCO4)cc1 (stereo not given)	5.26 µM (inactive)	14.6 µM (inactive)	4.78 µM (inactive)	13.7 µM (inactive)	10.2 µM (inactive)	3.56 µM (inactive)	6.41 µM (inactive)	4.69 µM (inactive)	3.45 µM (inactive)	3.95 µM (inactive)	7.73 µM (inactive)	4.94 µM (inactive)	5.26 µM (inactive)	6.67 µM (inactive)	3.53 µM (inactive)	21.5 µM (inactive)	3.94 µM (inactive)	6.85 µM (inactive)	5.83 µM (inactive)	11.7 µM (inactive)
O=C1c2ccccc2C(=O)c2c1ccc1conc21	2.75 µM (inactive)	1.36 µM (inactive)	3.24 µM (inactive)	5.48 µM (inactive)	1.98 µM (inactive)	2.1 µM (inactive)	2.26 µM (inactive)	1.48 µM (inactive)	1.7 µM (inactive)	5.65 µM (inactive)	4.95 µM (inactive)	5.51 µM (inactive)	6.46 µM (inactive)	1.66 µM (inactive)	8.93 µM (inactive)	2.08 µM (inactive)	0.632 µM (active)	1.92 µM (inactive)	2.45 µM (inactive)	0.221 µM (active)
CCOC(=O)CC[C@H](N)C(=O)N[C@H](Cc1ccc(N(CCCl)CCCl)cc1)C(=O)OCC	0.703 µM (active)	0.857 µM (active)	3.32 µM (inactive)	16.1 µM (inactive)	10 µM (inactive)	3.56 µM (inactive)	1.42 µM (inactive)	3.63 µM (inactive)	1.41 µM (inactive)	0.977 µM (active)	3.54 µM (inactive)	1.58 µM (inactive)	4.54 µM (inactive)	2.97 µM (inactive)	2.39 µM (inactive)	6.03 µM (inactive)	1.18 µM (inactive)	45.3 µM (inactive)	1.51 µM (inactive)	6.55 µM (inactive)
Cc1c(CCOC=O)c(=O)[nH]c2nncn12	> 100 µM (inactive)	> 100 µM (inactive)	> 100 µM (inactive)	> 100 µM (inactive)	> 100 µM (inactive)	> 100 µM (inactive)	> 100 µM (inactive)	> 100 µM (inactive)	> 100 µM (inactive)	> 100 µM (inactive)	> 100 µM (inactive)	> 100 µM (inactive)	> 100 µM (inactive)	> 100 µM (inactive)	> 100 µM (inactive)	> 100 µM (inactive)	> 100 µM (inactive)	> 100 µM (inactive)	> 100 µM (inactive)	> 100 µM (inactive)
N=c1oc2ccc([N+](=O)[O-])cc2cc1C(=O)Nc1ccccn1	19.2 µM (inactive)	41.3 µM (inactive)	34.3 µM (inactive)	33.9 µM (inactive)	> 100 µM (inactive)	70.3 µM (inactive)	36.8 µM (inactive)	12.9 µM (inactive)	24.5 µM (inactive)	44 µM (inactive)	> 100 µM (inactive)	69 µM (inactive)	> 100 µM (inactive)	92.3 µM (inactive)	29.1 µM (inactive)	34.6 µM (inactive)	> 100 µM (inactive)	93.5 µM (inactive)	34.2 µM (inactive)	21.6 µM (inactive)
O=C1CSC(/C=C/c2ccccc2)N1c1ccc(-c2ccc(-n3c(-c4ccccc4)nc4ccccc4c3=O)cc2)cc1 (stereo not given)	13.4 µM (inactive)	35.6 µM (inactive)	17.3 µM (inactive)	21.8 µM (inactive)	30.3 µM (inactive)	19.4 µM (inactive)	16.9 µM (inactive)	22.2 µM (inactive)	17.8 µM (inactive)	18.2 µM (inactive)	24 µM (inactive)	30.7 µM (inactive)	51.8 µM (inactive)	25.1 µM (inactive)	> 10 µM (inactive)	15.5 µM (inactive)	15.7 µM (inactive)	13.8 µM (inactive)	24.3 µM (inactive)	25.1 µM (inactive)
C=C1CC2C[C@H](OS(=O)(=O)c3ccc(C)cc3)C(C1)N2C (stereo not given in full)	> 100 µM (inactive)	> 100 µM (inactive)	> 100 µM (inactive)	> 100 µM (inactive)	> 100 µM (inactive)	> 100 µM (inactive)	> 100 µM (inactive)	> 100 µM (inactive)	> 100 µM (inactive)	> 100 µM (inactive)	> 100 µM (inactive)	> 100 µM (inactive)	> 100 µM (inactive)	> 100 µM (inactive)	> 100 µM (inactive)	> 100 µM (inactive)	> 100 µM (inactive)	> 100 µM (inactive)	> 100 µM (inactive)	> 100 µM (inactive)
O=[N+]([O-])C1(C2([N+](=O)[O-])CCCC2)CCCC1	> 100 µM (inactive)	> 100 µM (inactive)	> 100 µM (inactive)	> 100 µM (inactive)	> 100 µM (inactive)	> 100 µM (inactive)	> 100 µM (inactive)	> 100 µM (inactive)	50.7 µM (inactive)	> 100 µM (inactive)	> 100 µM (inactive)	> 100 µM (inactive)	> 100 µM (inactive)	> 100 µM (inactive)	> 100 µM (inactive)	> 100 µM (inactive)	> 100 µM (inactive)	> 100 µM (inactive)	> 100 µM (inactive)	> 100 µM (inactive)
COc1c(C(C)(C)C)cc(CC2C(=O)C=CC2=O)cc1C(C)(C)C	2.86 µM (inactive)	22.4 µM (inactive)	17.4 µM (inactive)	19.1 µM (inactive)	17.5 µM (inactive)	6.92 µM (inactive)	17.9 µM (inactive)	15.8 µM (inactive)	2.25 µM (inactive)	6.75 µM (inactive)	24.3 µM (inactive)	20.2 µM (inactive)	25.1 µM (inactive)	9.68 µM (inactive)	27 µM (inactive)	17.7 µM (inactive)	2.93 µM (inactive)	17.3 µM (inactive)	17.9 µM (inactive)	18.2 µM (inactive)
COc1ccc(N2C(=O)CC(=O)N(C(=O)CCCCCCCCC(=O)N3C(=O)CC(=O)N(c4ccc(OC)cc4)C3=S)C2=S)cc1	> 100 µM (inactive)	> 100 µM (inactive)	79.6 µM (inactive)	> 100 µM (inactive)	> 100 µM (inactive)	> 100 µM (inactive)	> 100 µM (inactive)	> 100 µM (inactive)	65.2 µM (inactive)	> 100 µM (inactive)	> 100 µM (inactive)	> 100 µM (inactive)	> 100 µM (inactive)	> 100 µM (inactive)	> 100 µM (inactive)	> 100 µM (inactive)	54.3 µM (inactive)	57.9 µM (inactive)	> 100 µM (inactive)	> 100 µM (inactive)
CC1C(OC2O[C@@H]3O[C@@]4(C)CC[C@H]5[C@H](C)CC[C@@H](C2C)[C@@]35O4)O[C@@H]2O[C@@]3(C)CC[C@H]4[C@H](C)CC[C@@H]1[C@@]24O3 (stereo not given in full)	> 50 µM (inactive)	> 50 µM (inactive)	> 50 µM (inactive)	> 50 µM (inactive)	> 50 µM (inactive)	> 50 µM (inactive)	> 50 µM (inactive)	> 50 µM (inactive)	19.3 µM (inactive)	> 50 µM (inactive)	> 50 µM (inactive)	> 50 µM (inactive)	> 50 µM (inactive)	> 50 µM (inactive)	> 50 µM (inactive)	> 50 µM (inactive)	> 50 µM (inactive)	> 50 µM (inactive)	> 50 µM (inactive)	> 50 µM (inactive)
Cc1nn(-c2ccccc2)c2c1C(c1ccc(Cl)cc1)NC(=S)N2 (stereo not given)	15.6 µM (inactive)	18.9 µM (inactive)	23.1 µM (inactive)	28.6 µM (inactive)	36.6 µM (inactive)	23 µM (inactive)	21.9 µM (inactive)	18.9 µM (inactive)	14 µM (inactive)	17.2 µM (inactive)	24.6 µM (inactive)	23 µM (inactive)	22.9 µM (inactive)	22.5 µM (inactive)	29 µM (inactive)	25.8 µM (inactive)	38.6 µM (inactive)	20.3 µM (inactive)	22.3 µM (inactive)	16.5 µM (inactive)
CCC1=NC(N/N=C/c2ccco2)=N/C1=C\c1ccco1	> 100 µM (inactive)	> 100 µM (inactive)	> 100 µM (inactive)	> 100 µM (inactive)	> 100 µM (inactive)	> 100 µM (inactive)	> 100 µM (inactive)	> 100 µM (inactive)	> 100 µM (inactive)	> 100 µM (inactive)	> 100 µM (inactive)	52 µM (inactive)	> 100 µM (inactive)	> 100 µM (inactive)	> 100 µM (inactive)	> 100 µM (inactive)	> 100 µM (inactive)	> 100 µM (inactive)	> 100 µM (inactive)	> 100 µM (inactive)
